Source: patent publication US11591326B2, “Inhibitors of protein arginine methyltransferase 5 (PRMT5), pharmaceutical products thereof, and methods thereof” (PHARMABLOCK SCIENCES (NANJING), INC., priority 2018, dated 2023)
Read-outs that look alike come from different tables or passages of the source.

Tests used:
[1] = target: Human recombinant PRMT5 in complex with human recombinant MEP50 (Homo sapiens (Human), UniProt O14744); assay: PRMT5/MEP50 AlphaLISA enzyme inhibitory assay; type: biochemical; details: PRMT5/MEP50 25 nM, SAM 10 μM, Biotin-H4 peptide 30 nM
Outline: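 Insect-cell-expressed PRMT5/MEP50 (25 nM) preincubated with SAM (10 μM), then 15 min with compound in pH 8.5 Tris buffer, 1% DMSO. Biotin-H4(1–21) peptide (30 nM) reaction ran 120 min at room temperature. H4R3 methylation detected by AlphaLISA; IC50 from four-parameter sigmoidal fit.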

MDA-MB-231 = assay: Breast cancer panel proliferation inhibition, MDA-MB-231; type: cell-based; details: Homo sapiens
Experimental: (§1) Inhibitory ability of compounds synthesized on the proliferation of three panels of cancer cell lines, including 5 breast cancer, 6 liver cancer, and 3 lung cancer cell lines were evaluated. Exponentially growing cells were seeded in the media of choice at various cell densities in 384-well plates with 20 ul per well and incubated overnight at 37° C., 5% CO2 incubator. Compounds were prepared as 10-point, 3-fold serial dilutions in DMSO, beginning at 6 mM. 1 μl of DMSO solutions from the compound stock plates were added to 99 ul of cell media (final top concentration of compound in the assay was 30 uM and the final concentration of DMSO was 0.5%). 20 μL of compound solutions in media were added to each well of plates with cells seeded. After adding compound solutions, assay plates were incubated for 8 and 12 days, respectively, at 37° C., 5% CO2. During this incubation period, cell media was changed every 4 days. After removing old media from cell plates, 40 ul of media with testing compounds dissolved, which were prepared by adding 1 ul of compound DMSO serial solutions to 199 ul of cell media, were added to the assay plates with the same layout as they were initially prepared. After 8 or 12 days, cell viability was measured using the CellTiter-Glo assay kit from Promega (Madison, Wis., USA) by quantitating the ATP present in the cell cultures. 20 μL of CellTiter-Glo reagent was added to each well of the cell plates. Luminescence was read after 10 minute of incubation with the Envision multiple plate reader from PerkinElmer (Waltham, Mass., USA). The concentrations of compounds inhibiting cell viability by 50% (IC50 values) were determined using a sigmoidal dose-response model (variable slopes, four parameters) in Prism 7 (La Jolla, Calif., USA).

MDA-MB-468 = assay: Breast cancer panel proliferation inhibition, MDA-MB-468; type: cell-based; details: Homo sapiens
Experimental: as §1

SNU398 = assay: Liver cancer panel proliferation inhibition, SNU398; type: cell-based; details: Homo sapiens
Experimental: as §1

Z-138 tumor cells = assay: Mantle cell lymphoma (MCL) Z-138 xenograft efficacy study; type: in vivo, CB-17 female SCID mice; details: administered orally BID for 21 days
Experimental: For the in vivo efficacy studies, CB-17 female SCID mice (19-21 g; 10-12 weeks) were purchased from Shanghai SLAC laboratory animal CO. LTD. Each mouse was inoculated subcutaneously at the right flank with Z-138 tumor cells (5×10^6 cells/mouse, 50% Matrigel) in 0.2 mL of a mixture of base media and Matrigel (RPMI:Matrigel, 1:1) for tumor development. The treatments were started when the mean tumor size reached 121.55 mm^3, which was 11 days after inoculation. Mice were assigned into groups using a randomized block design. Testing compounds or vehicle (5% DMSO+45% PEG400+50% H2O) was administered orally BID for 21 days. Body weights were measured three times per week for the whole duration of the study. Tumor size was measured at the same schedule in two dimensions using a caliper, and the volume was expressed in cubic millimeters. Animals were euthanized 6 h after the final dose on day 21, at which time tumors were collected for analysis.

[2] = 192 h, MDA-MB-231, 8 days, read-out: IC50 (μM) 8 days
[3] = 288 h, MDA-MB-231, 12 days, read-out: IC50 (μM) 12 days
[4] = 192 h, MDA-MB-468, 8 days, read-out: IC50 (μM) 8 days
[5] = 288 h, MDA-MB-468, 12 days, read-out: IC50 (μM) 12 days
[6] = SNU-398, 192 h, SNU398, 8 days, read-out: IC50 (μM) 8 days
[7] = SNU-398, 288 h, SNU398, 12 days, read-out: IC50 (μM) 12 days

Chain of Human recombinant PRMT5 in complex with human recombinant MEP50 (O14744 whole entry): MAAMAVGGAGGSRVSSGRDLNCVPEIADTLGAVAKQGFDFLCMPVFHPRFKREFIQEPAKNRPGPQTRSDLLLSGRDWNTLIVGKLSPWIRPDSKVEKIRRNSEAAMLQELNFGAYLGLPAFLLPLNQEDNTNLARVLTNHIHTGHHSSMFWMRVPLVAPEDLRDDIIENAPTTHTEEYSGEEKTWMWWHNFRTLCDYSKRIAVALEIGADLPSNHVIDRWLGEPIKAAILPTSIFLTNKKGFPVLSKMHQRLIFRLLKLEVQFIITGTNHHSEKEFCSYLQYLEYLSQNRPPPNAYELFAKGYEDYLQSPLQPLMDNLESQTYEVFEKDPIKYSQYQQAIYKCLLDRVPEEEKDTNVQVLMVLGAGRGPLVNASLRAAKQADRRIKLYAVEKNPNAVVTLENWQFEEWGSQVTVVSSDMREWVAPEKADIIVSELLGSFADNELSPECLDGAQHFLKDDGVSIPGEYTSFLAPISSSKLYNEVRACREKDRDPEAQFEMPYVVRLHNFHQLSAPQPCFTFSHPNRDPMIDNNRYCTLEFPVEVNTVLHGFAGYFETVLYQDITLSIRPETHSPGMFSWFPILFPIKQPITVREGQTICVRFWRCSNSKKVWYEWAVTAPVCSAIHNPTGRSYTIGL
Chain of Human recombinant PRMT5 in complex with human recombinant MEP50 (Q9BQA1 whole entry partner): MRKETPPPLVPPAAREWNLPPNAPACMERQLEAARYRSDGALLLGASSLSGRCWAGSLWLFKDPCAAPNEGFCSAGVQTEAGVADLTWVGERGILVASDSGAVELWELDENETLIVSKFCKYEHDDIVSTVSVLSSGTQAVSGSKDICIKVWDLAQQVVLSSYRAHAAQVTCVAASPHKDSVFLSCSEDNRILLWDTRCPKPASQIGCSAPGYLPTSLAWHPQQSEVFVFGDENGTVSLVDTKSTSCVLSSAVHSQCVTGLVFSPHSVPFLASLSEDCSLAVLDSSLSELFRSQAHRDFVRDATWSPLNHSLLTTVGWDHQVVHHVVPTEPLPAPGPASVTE

IC50 [1] [nM]	IC50 (MDA-MB-231; [2]) [µM]	IC50 (MDA-MB-231; [3]) [µM]	IC50 (MDA-MB-468; [4]) [µM]	IC50 (MDA-MB-468; [5]) [µM]	IC50 (SNU398; [6]) [µM]	IC50 (SNU398; [7]) [µM]	Compound	result in Z-138 xenograft efficacy studies (tumor volume change, FIG. 1) (Z-138 tumor cells)
13	0.49	0.075	0.042	0.0041	0.54	0.25	CC(=O)N1CCC(Nc2ccc3c(c2)C(=O)N(C[C@H](O)CN2CCc4ccccc4C2)CC3)CC1 [Compound 24a, (R)-7-((1-acetylpiperidin-4-yl)amino)-2-(3-(3,4-dihydroisoquinolin-2(1H)-yl)-2-hydroxypropyl)-3,4-dihydroisoquinolin-1(2H)-one]	
80	0.17	0.064	0.022	0.0038	0.45	0.12	CC(=O)N1CCC(Nc2ccc3c(c2)C(=O)N(C[C@H](O)CN2CCc4ccccc4C2)CCO3)CC1 [Compound 52a, (R)-7-((1-acetylpiperidin-4-yl)amino)-4-(3-(3,4-dihydroisoquinolin-2(1H)-yl)-2-hydroxypropyl)-3,4-dihydrobenzo[f][1,4]oxazepin-5(2H)-one]	promising result
	0.7	0.096	0.044	0.0074	0.83	0.41	CC(=O)N1CCC(Nc2cc(C(=O)NC[C@H](O)CN3CCc4ccccc4C3)ncn2)CC1 [Compound C3, reference compound]	
